Biological target: His-tagged recombinant human Gal-3 (hGal-3) (Homo sapiens (Human), UniProt P17931)
Experiment: Gal-3 HTRF assay (hGal-3 / B-ASF)
Assay type: binding
Details: 15 nM hGal-3, 15 nM B-ASF, three replicates, room temperature, read-out: hGal3 IC50
Procedure: ASSAY BUFFER Composition: 25 mM HEPES, 100 mM NaCl, 0.005% Tween 20, 0.05% BSA prepared in sterile water (all reagents from Sigma)
Positive Control: 100% DMSO (1 μl)+His-tagged hGal-3 (20 μL)+B-ASF (20 μl)+Anti-His Terbium Antibody (5 μl)+Strep d2 Antibody (5 μl).
Negative Control: 100% DMSO (1 μl)+His-tagged hGal-3 (20μL)+Anti His Terbium Antibody (5 μl)+Strep d2 Aantibody (5 μl).
PROTOCOL: The Gal-3 assays were performed in 384 white Opti plates in three replicates at room temperature with gentle shaking at 250-300 rpm From the original stocks, […] working stock concentrations of His-tagged recombinant human Gal-3 (hGal-3) and that of B-ASF were prepared. From the working stock, 20 μl of hGal-3 (15 nM) and 20 μl B-ASF (15 nM) were added to the plates. In Negative Control, only hGal-3 was added. A concentration range of 50× working stocks were prepared for the compounds in 100% DMSO. Aliquots of 1 uL of the compounds were added to the wells and pre-incubated with 20 μl hGal-3 per well for 30 minutes Then 20 μl B-ASF were added and incubated for another 1 hour. To detect the signal, 5 μ(final conc. of 1.0 nM) terbium labelled Anti-His antibody was added and incubated for 30 min followed by adding 5 μ(final conc. of 20 nM) Streptavidin d2 and incubation for another 1 hour. The assay signal was detected using HTRF screen protocol (Excitation wavelength=340 nm, emission wavelength=615 nm/665 nm) on Envision 2104 Multilabel Reader. Data analysed using Toolset and Curve Master. Results are reported in the experimental section (IC50 in μM).

Sequence of His-tagged recombinant human Gal-3 (hGal-3) (P17931 whole entry): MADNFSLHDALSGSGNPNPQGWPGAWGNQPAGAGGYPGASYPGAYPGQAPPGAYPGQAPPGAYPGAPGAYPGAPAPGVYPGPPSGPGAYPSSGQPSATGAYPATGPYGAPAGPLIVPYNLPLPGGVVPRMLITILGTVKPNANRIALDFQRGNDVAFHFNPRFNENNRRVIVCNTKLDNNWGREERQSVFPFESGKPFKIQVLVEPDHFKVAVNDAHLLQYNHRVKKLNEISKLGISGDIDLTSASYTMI

IC50 [µM] | Compound
0.017 | O=C(O)CO[C@@H]1[C@@H](n2cc(-c3cc(F)c(F)c(F)c3)nn2)[C@@H](O)[C@@H](CO)O[C@@H]1[S+]([O-])c1ccc(Cl)c(Cl)c1 (single isomer, unassigned) [18 (isomer-1)]
0.1 | O=C(O)CO[C@@H]1[C@@H](n2cc(-c3cc(F)c(F)c(F)c3)nn2)[C@@H](O)[C@@H](CO)O[C@@H]1[S+]([O-])c1ccc(Cl)c(Cl)c1 (single isomer, unassigned) [18 (isomer-2)]
0.029 | CO[C@@H]1[C@@H](n2cc(-c3cc(F)c(F)c(F)c3)nn2)[C@@H](O)[C@@H](CO)O[C@@H]1[S+]([O-])c1ccc(Cl)c(Cl)c1 (single isomer, unassigned) [Example 2 (isomer-1)]
0.155 | CO[C@@H]1[C@@H](n2cc(-c3cc(F)c(F)c(F)c3)nn2)[C@@H](O)[C@@H](CO)O[C@@H]1[S+]([O-])c1ccc(Cl)c(Cl)c1 (single isomer, unassigned) [Example 2 (isomer-2)]
0.1 | CCO[C@@H]1[C@@H](n2cc(-c3cc(F)c(F)c(F)c3)nn2)[C@@H](O)[C@@H](CO)O[C@@H]1[S+]([O-])c1ccc(Cl)c(Cl)c1 (single isomer, unassigned) [Example 9 (isomer-1)]
0.34 | CCO[C@@H]1[C@@H](n2cc(-c3cc(F)c(F)c(F)c3)nn2)[C@@H](O)[C@@H](CO)O[C@@H]1[S+]([O-])c1ccc(Cl)c(Cl)c1 (single isomer, unassigned) [Example 9 (isomer-2)]
0.15 | CC(O[C@@H]1[C@@H](n2cc(-c3cc(F)c(F)c(F)c3)nn2)[C@@H](O)[C@@H](CO)O[C@@H]1Sc1ccc(Cl)c(Cl)c1)C(=O)O (single isomer, unassigned) [Example 38 (isomer-1)]
0.04 | CC(O[C@@H]1[C@@H](n2cc(-c3cc(F)c(F)c(F)c3)nn2)[C@@H](O)[C@@H](CO)O[C@@H]1Sc1ccc(Cl)c(Cl)c1)C(=O)O (single isomer, unassigned) [Example 38 (isomer-2)]
0.36 | CC(O[C@@H]1[C@@H](n2cc(-c3cc(F)c(F)c(F)c3)nn2)[C@@H](O)[C@@H](CO)O[C@@H]1S(=O)(=O)c1ccc(Cl)c(Cl)c1)C(=O)O (single isomer, unassigned) [Example 39 (isomer-1)]
0.02 | CC(O[C@@H]1[C@@H](n2cc(-c3cc(F)c(F)c(F)c3)nn2)[C@@H](O)[C@@H](CO)O[C@@H]1S(=O)(=O)c1ccc(Cl)c(Cl)c1)C(=O)O (single isomer, unassigned) [Example 39 (isomer-2)]
2.2 | OC[C@H]1O[C@H](Sc2ccc(Cl)c(Cl)c2)[C@H](F)[C@@H](n2cc(-c3cc(F)c(F)c(F)c3)nn2)[C@H]1O (single isomer, unassigned) [Example 62 (isomer-1)]
10 | OC[C@H]1O[C@@H](Sc2ccc(Cl)c(Cl)c2)[C@H](F)[C@@H](n2cc(-c3cc(F)c(F)c(F)c3)nn2)[C@H]1O (single isomer, unassigned) [Example 62 (isomer-2)]
0.7 | CO[C@@H]1[C@@H](n2cc(-c3cc(F)c(F)c(F)c3)nn2)[C@@H](O)[C@@H](CO)O[C@@H]1Sc1ccc(Cl)c(Cl)c1 [Example 1, (2R,3R,4S,5R,6R)-6-((3,4-dichlorophenyl)thio)-2-(hydroxymethyl)-5-methoxy-4-(4-(3,4,5-trifluorophenyl)-1H-1,2,3-triazol-1-yl)tetrahydro-2H-pyran-3-ol]
0.112 | CO[C@@H]1[C@@H](n2cc(-c3cc(F)c(F)c(F)c3)nn2)[C@@H](O)[C@@H](CO)O[C@@H]1S(=O)(=O)c1ccc(Cl)c(Cl)c1 [Example 3, (2R,3R,4S,5R,6R)-6-((3,4-dichlorophenyl)sulfonyl)-2-(hydroxymethyl)-5-methoxy-4-(4-(3,4,5-trifluorophenyl)-1H-1,2,3-triazol-1-yl)tetrahydro-2H-pyran-3-ol]
1.05 | CCO[C@@H]1[C@@H](n2cc(-c3cc(F)c(F)c(F)c3)nn2)[C@@H](O)[C@@H](CO)O[C@@H]1Sc1ccc(Cl)c(Cl)c1 [Example 4, (2R,3R,4S,5R,6R)-6-((3,4-dichlorophenyl)thio)-5-ethoxy-2-(hydroxymethyl)-4-(4-(3,4,5-trifluorophenyl)-1H-1,2,3-triazol-1-yl)tetrahydro-2H-pyran-3-ol]
0.2 | CCO[C@@H]1[C@@H](n2cc(-c3cc(F)c(F)c(F)c3)nn2)[C@@H](O)[C@@H](CO)O[C@@H]1S(=O)(=O)c1ccc(Cl)c(Cl)c1 [Example 10, (2R,3R,4S,5R,6R)-6-((3,4-dichlorophenyl)sulfonyl)-5-ethoxy-2-(hydroxymethyl)-4-(4-(3,4,5-trifluorophenyl)-1H-1,2,3-triazol-1-yl)tetrahydro-2H-pyran-3-ol]
0.056 | COCCO[C@@H]1[C@@H](n2cc(-c3cc(F)c(F)c(F)c3)nn2)[C@@H](O)[C@@H](CO)O[C@@H]1[S@+]([O-])c1ccc(Cl)c(Cl)c1 [Example 11, (2R,3R,4S,5R,6R)-6-((R)-(3,4-dichlorophenyl)sulfinyl)-2-(hydroxymethyl)-5-(2-methoxyethoxy)-4-(4-(3,4,5-trifluorophenyl)-1H-1,2,3-triazol-1-yl)tetrahydro-2H-pyran-3-ol]
0.13 | COCCO[C@@H]1[C@@H](n2cc(-c3cc(F)c(F)c(F)c3)nn2)[C@@H](O)[C@@H](CO)O[C@@H]1S(=O)(=O)c1ccc(Cl)c(Cl)c1 [Example 12, (2R,3R,4S,5R,6R)-6-((3,4-dichlorophenyl)sulfonyl)-2-(hydroxymethyl)-5-(2-methoxyethoxy)-4-(4-(3,4,5-trifluorophenyl)-1H-1,2,3-triazol-1-yl)tetrahydro-2H-pyran-3-ol]
0.05 | [O-][N+]1(CCO[C@@H]2[C@@H](n3cc(-c4cc(F)c(F)c(F)c4)nn3)[C@@H](O)[C@@H](CO)O[C@@H]2Sc2ccc(Cl)c(Cl)c2)CCOCC1 [Example 13, 4-(2-(((2R,3R,4S,5R,6R)-2-((3,4-dichlorophenyl)thio)-5-hydroxy-6-(hydroxymethyl)-4-(4-(3,4,5-trifluorophenyl)-1H-1,2,3-triazol-1-yl)tetrahydro-2H-pyran-3-yl)oxy)ethyl)morpholine 4-oxide]
0.38 | CCOC(=O)CO[C@@H]1[C@@H](n2cc(-c3cc(F)c(F)c(F)c3)nn2)[C@@H](O)[C@@H](CO)O[C@@H]1Sc1ccc(Cl)c(Cl)c1 [Example 14, ethyl 2-(((2R,3R,4S,5R,6R)-2-((3,4-dichlorophenyl)thio)-5-hydroxy-6-(hydroxymethyl)-4-(4-(3,4,5-trifluorophenyl)-1H-1,2,3-triazol-1-yl)tetrahydro-2H-pyran-3-yl)oxy)acetate]
0.23 | N#CCO[C@@H]1[C@@H](n2cc(-c3cc(F)c(F)c(F)c3)nn2)[C@@H](O)[C@@H](CO)O[C@@H]1Sc1ccc(Cl)c(Cl)c1 [Example 15, 2-(((2R,3R,4S,5R,6R)-2-((3,4-dichlorophenyl)thio)-5-hydroxy-6-(hydroxymethyl)-4-(4-(3,4,5-trifluorophenyl)-1H-1,2,3-triazol-1-yl)tetrahydro-2H-pyran-3-yl)oxy)acetonitrile]
0.025 | CCOC(=O)CO[C@@H]1[C@@H](n2cc(-c3cc(F)c(F)c(F)c3)nn2)[C@@H](O)[C@@H](CO)O[C@@H]1[S@@+]([O-])c1ccc(Cl)c(Cl)c1 [Example 16, ethyl 2-(((2R,3R,4S,5R,6R)-2-((S)-(3,4-dichlorophenyl)sulfinyl)-5-hydroxy-6-(hydroxymethyl)-4-(4-(3,4,5-trifluorophenyl)-1H-1,2,3-triazol-1-yl)tetrahydro-2H-pyran-3-yl)oxy)acetate]
0.19 | CCOC(=O)CO[C@@H]1[C@@H](n2cc(-c3cc(F)c(F)c(F)c3)nn2)[C@@H](O)[C@@H](CO)O[C@@H]1S(=O)(=O)c1ccc(Cl)c(Cl)c1 [Example 17, ethyl 2-(((2R,3R,4S,5R,6R)-2-((3,4-dichlorophenyl)sulfonyl)-5-hydroxy-6-(hydroxymethyl)-4-(4-(3,4,5-trifluorophenyl)-1H-1,2,3-triazol-1-yl)tetrahydro-2H-pyran-3-yl)oxy)acetate]
0.06 | O=C(O)CO[C@@H]1[C@@H](n2cc(-c3cc(F)c(F)c(F)c3)nn2)[C@@H](O)[C@@H](CO)O[C@@H]1S(=O)(=O)c1ccc(Cl)c(Cl)c1 [Example 19, 2-(((2R,3R,4S,5R,6R)-2-((3,4-dichlorophenyl)sulfonyl)-5-hydroxy-6-(hydroxymethyl)-4-(4-(3,4,5-trifluorophenyl)-1H-1,2,3-triazol-1-yl)tetrahydro-2H-pyran-3-yl)oxy)acetic acid]
0.04 | O=C(CO[C@@H]1[C@@H](n2cc(-c3cc(F)c(F)c(F)c3)nn2)[C@@H](O)[C@@H](CO)O[C@@H]1Sc1ccc(Cl)c(Cl)c1)N1CCC(O)CC1 [Example 20, 2-(((2R,3R,4S,5R,6R)-2-((3,4-dichlorophenyl)thio)-5-hydroxy-6-(hydroxymethyl)-4-(4-(3,4,5-trifluorophenyl)-1H-1,2,3-triazol-1-yl)tetrahydro-2H-pyran-3-yl)oxy)-1-(4-hydroxypiperidin-1-yl)ethan-1-one]
